Non-standard residues stand in square brackets, D forms with d. Residues, ends and D or L forms follow the SMILES beside them. Groups on a side chain read outwards from the residue. *: point of attachment. Phe(4-Br) = N[C@@H](Cc1ccc(Br)cc1)C(=O)O; NEt2 = CCN(CC)*
system: HeLa; assay: Antitumor activity against human HeLa cells; assay type: functional, cell-based

Row | Compound | IC50
1 | CCN(CC)C(=O)[C@H](Cc1ccc(Br)cc1)NC(=O)[C@H](CC(C)C)NC(=O)[C@@H](NC(=O)[C@@H](N)COC(=O)[C@@H]1CCCN1C(C)=O)C(C)C (H-S([Pro-Ac])VL[Phe(4-Br)]-NEt2) | > 50 µg/mL

system: MDA-MB-231; assay: Antitumor activity against human MDA-MB-231 cells; assay type: functional, cell-based

Row | Compound | IC50
2 | CCN(CC)C(=O)[C@H](Cc1ccc(Br)cc1)NC(=O)[C@H](CC(C)C)NC(=O)[C@@H](NC(=O)[C@@H](N)COC(=O)[C@@H]1CCCN1C(C)=O)C(C)C (H-S([Pro-Ac])VL[Phe(4-Br)]-NEt2) | > 50 µg/mL

system: not listed separately; assay: Inhibition of IMPDH (unknown origin); parameters: species or system Homo sapiens

Row | Compound | IC50
3 | CCN(CC)C(=O)[C@H](Cc1ccc(Br)cc1)NC(=O)[C@H](CC(C)C)NC(=O)[C@@H](NC(=O)[C@@H](N)COC(=O)[C@@H]1CCCN1C(C)=O)C(C)C (H-S([Pro-Ac])VL[Phe(4-Br)]-NEt2) | > 100 µg/mL

target: Acetylcholinesterase (Homo sapiens, UniProt P22303); assay: Inhibition of AchE (unknown origin)
Sequence (P22303 whole entry): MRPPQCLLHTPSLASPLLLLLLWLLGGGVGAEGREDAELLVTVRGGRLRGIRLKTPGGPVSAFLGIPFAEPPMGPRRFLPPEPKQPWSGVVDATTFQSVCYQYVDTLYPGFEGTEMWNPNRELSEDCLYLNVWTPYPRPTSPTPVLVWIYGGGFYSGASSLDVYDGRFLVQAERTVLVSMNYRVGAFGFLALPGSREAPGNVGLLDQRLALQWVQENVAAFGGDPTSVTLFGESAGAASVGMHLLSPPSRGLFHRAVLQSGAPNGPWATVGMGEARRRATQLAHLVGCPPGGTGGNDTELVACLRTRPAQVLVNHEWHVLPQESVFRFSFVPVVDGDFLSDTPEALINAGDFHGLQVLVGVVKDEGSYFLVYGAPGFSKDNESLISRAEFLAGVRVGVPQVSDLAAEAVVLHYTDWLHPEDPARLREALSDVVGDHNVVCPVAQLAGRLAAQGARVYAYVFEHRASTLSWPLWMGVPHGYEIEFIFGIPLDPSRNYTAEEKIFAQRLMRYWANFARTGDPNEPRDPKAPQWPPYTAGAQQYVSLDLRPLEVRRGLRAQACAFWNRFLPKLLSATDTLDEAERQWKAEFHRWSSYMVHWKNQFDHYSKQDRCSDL

Row | Compound | IC50
4 | CCN(CC)C(=O)[C@H](Cc1ccc(Br)cc1)NC(=O)[C@H](CC(C)C)NC(=O)[C@@H](NC(=O)[C@@H](N)COC(=O)[C@@H]1CCCN1C(C)=O)C(C)C (H-S([Pro-Ac])VL[Phe(4-Br)]-NEt2) | > 136 µM

system: Proteasome; assay: Inhibition of proteasome (unknown origin); assay type: subcellular, Homo sapiens

Row | Compound | IC50
5 | CCN(CC)C(=O)[C@H](Cc1ccc(Br)cc1)NC(=O)[C@H](CC(C)C)NC(=O)[C@@H](NC(=O)[C@@H](N)COC(=O)[C@@H]1CCCN1C(C)=O)C(C)C (H-S([Pro-Ac])VL[Phe(4-Br)]-NEt2) | > 100 µg/mL

target: T1, Monoglyceride lipase (Homo sapiens, UniProt Q99685); assay: Inhibition of MAGL (unknown origin)
T1 sequence (Q99685 whole entry): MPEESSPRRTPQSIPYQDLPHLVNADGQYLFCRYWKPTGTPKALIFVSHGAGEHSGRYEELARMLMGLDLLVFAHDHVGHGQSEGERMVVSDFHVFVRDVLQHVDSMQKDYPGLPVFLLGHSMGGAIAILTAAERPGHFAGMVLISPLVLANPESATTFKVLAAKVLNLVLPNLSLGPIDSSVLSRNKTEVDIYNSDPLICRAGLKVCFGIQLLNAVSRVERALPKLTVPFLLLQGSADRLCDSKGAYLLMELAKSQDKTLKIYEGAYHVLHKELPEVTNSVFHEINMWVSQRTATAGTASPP

Row | Compound | IC50
6 | CCN(CC)C(=O)[C@H](Cc1ccc(Br)cc1)NC(=O)[C@H](CC(C)C)NC(=O)[C@@H](NC(=O)[C@@H](N)COC(=O)[C@@H]1CCCN1C(C)=O)C(C)C (H-S([Pro-Ac])VL[Phe(4-Br)]-NEt2) | > 136 µM

target: Cathepsin B (Homo sapiens, UniProt P07858); assay: Inhibition of cathepsin B (unknown origin)

Row | Compound | IC50
7 | CCN(CC)C(=O)[C@H](Cc1ccc(Br)cc1)NC(=O)[C@H](CC(C)C)NC(=O)[C@@H](NC(=O)[C@@H](N)COC(=O)[C@@H]1CCCN1C(C)=O)C(C)C (H-S([Pro-Ac])VL[Phe(4-Br)]-NEt2) | > 136 µM

target: T2, Tyrosine-protein phosphatase non-receptor type 11 (Homo sapiens) (UniProt Q06124); assay: Inhibition of SHP2 (unknown origin) at 100 uM
T2 sequence (whole entry): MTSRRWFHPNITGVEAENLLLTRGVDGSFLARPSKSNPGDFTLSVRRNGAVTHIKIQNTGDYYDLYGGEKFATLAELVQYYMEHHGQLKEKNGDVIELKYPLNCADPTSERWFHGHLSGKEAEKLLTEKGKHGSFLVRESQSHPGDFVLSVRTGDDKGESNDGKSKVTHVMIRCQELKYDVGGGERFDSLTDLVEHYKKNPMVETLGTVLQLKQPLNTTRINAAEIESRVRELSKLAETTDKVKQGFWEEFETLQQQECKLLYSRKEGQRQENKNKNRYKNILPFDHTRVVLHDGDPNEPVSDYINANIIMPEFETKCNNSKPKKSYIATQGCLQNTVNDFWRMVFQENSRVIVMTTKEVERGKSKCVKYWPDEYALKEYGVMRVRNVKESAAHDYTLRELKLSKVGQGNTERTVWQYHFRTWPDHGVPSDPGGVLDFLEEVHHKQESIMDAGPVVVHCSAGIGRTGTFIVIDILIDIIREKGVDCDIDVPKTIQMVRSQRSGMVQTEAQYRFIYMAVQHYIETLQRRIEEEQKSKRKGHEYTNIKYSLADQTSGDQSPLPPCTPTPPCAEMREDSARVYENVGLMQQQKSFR

Row | Compound | inhibition
8 | CCN(CC)C(=O)[C@H](Cc1ccc(Br)cc1)NC(=O)[C@H](CC(C)C)NC(=O)[C@@H](NC(=O)[C@@H](N)COC(=O)[C@@H]1CCCN1C(C)=O)C(C)C (H-S([Pro-Ac])VL[Phe(4-Br)]-NEt2) | 86%

target: T2, Tyrosine-protein phosphatase non-receptor type 11 (Homo sapiens); assay: Inhibition of SHP2 (unknown origin) at 50 uM

Row | Compound | inhibition
9 | CCN(CC)C(=O)[C@H](Cc1ccc(Br)cc1)NC(=O)[C@H](CC(C)C)NC(=O)[C@@H](NC(=O)[C@@H](N)COC(=O)[C@@H]1CCCN1C(C)=O)C(C)C (H-S([Pro-Ac])VL[Phe(4-Br)]-NEt2) | 51%

target: T2, Tyrosine-protein phosphatase non-receptor type 11 (Homo sapiens); assay: Inhibition of SHP2 (unknown origin) at 20 uM

Row | Compound | inhibition
10 | CCN(CC)C(=O)[C@H](Cc1ccc(Br)cc1)NC(=O)[C@H](CC(C)C)NC(=O)[C@@H](NC(=O)[C@@H](N)COC(=O)[C@@H]1CCCN1C(C)=O)C(C)C (H-S([Pro-Ac])VL[Phe(4-Br)]-NEt2) | 20%
